Results taken from patent publication US8455665B2, “3-phenoxymethylpyrrolidine compounds” (Theravance, Inc., priority 2009, dated 2013).
Marks after values point to notes of the source that are not given here.

Tests used:
SERT [1] = target: T1, SERT (Homo sapiens, UniProt P31645); experiment: hSERT membrane radioligand binding assay (3H-citalopram); set-up: expressed in transfected cells; host or cells: HEK-293; conditions: hSERT membranes (HEK-293), 1.0 nM 3H-citalopram; for Ki: read-out: SERT pKi (converted)
Protocol: (§1) Membrane radioligand binding assays were used to measure inhibition of labeled ligand (^3H-citalopram or ^3H-nisoxetine or ^3H-WIN35428) binding to membranes prepared from cells expressing the respective human recombinant transporter (hSERT or hNET or hDAT) in order to determine the pKi values of test compounds at the transporters.
(§2) Recombinant human embryonic kidney (HEK-293) derived cell lines stably transfected with hSERT or hNET, respectively, were grown in DMEM medium supplemented with 10% dialyzed FBS (for hSERT) or FBS (for hNET), 100 μg/ml penicillin, 100 μg/ml streptomycin, 2 mM L-glutamine and 250 μg/ml of the aminoglycoside antibiotic G418, in a 5% CO2 humidified incubator at 37° C. When cultures reached 80% confluence, the cells were washed thoroughly in PBS (without Ca^2+ and Mg^2+) and lifted with 5 mM EDTA in PBS. Cells were pelleted by centrifugation, resuspended in lysis buffer (10 mM Tris-HCl, pH7.5 containing 1 mM EDTA), homogenized, pelleted by centrifugation, then resuspended in 50 mM Tris-HCl, pH 7.5 and 10% sucrose at 4° C. Protein concentration of the membrane suspension was determined using a Bio-Rad Bradford Protein Assay kit. Membranes were snap frozen and stored at −80° C. Chinese hamster ovary membranes expressing hDAT (CHO-DAT) were purchased from PerkinElmer and stored at −80° C.
(§3) Binding assays were performed in a 96-well assay plate in a total volume of 200 μl assay buffer (50 mM Tris-HCl, 120 mM NaCl, 5 mM KCl, pH 7.4) with 0.5, 1, and 3 μg membrane protein, for SERT, NET and DAT, respectively.
(§4) Stock solutions (10 mM in DMSO) of test compound were prepared and serial dilutions made using Dilution Buffer (50 mM Tris-HCl, 120 mM NaCl, 5 mM KCl, pH 7.4, 0.1% BSA, 400 μM ascorbic acid). Non-specific radioligand binding was determined in the presence of 1 μM duloxetine, 1 μM desipramine or 10 μM GBR12909 (each in Dilution Buffer) for the hSERT, hNET or hDAT assays, respectively.
(§5) Following a 60 minute incubation at 22° C. (or a period sufficient to reach equilibrium), the membranes were harvested by rapid filtration over a 96-well UniFilter GF/B plate, pretreated with 0.3% polyethyleneimine, and washed 6 times with […] (50 mM Tris-HCl, 0.9% NaCl, pH 7.5 at 4° C.). Plates were dried overnight at room temperature, approximately […] of MicroScint™-20 (Perkin Elmer) added and bound radioactivity quantitated via liquid scintillation spectroscopy. Inhibition curves and saturation isotherms were analyzed using GraphPad Prism Software package (GraphPad Software, Inc., San Diego, Calif.). IC50 values were generated from concentration response curves using the Sigmoidal Dose Response (variable slope) algorithm in Prism GraphPad. Kd and Bmax values for the radioligand were generated from saturation isotherms using the Saturation Binding Global Fit algorithm in Prism GraphPad. pKi (negative decadic logarithm of Ki) values for test compounds were calculated from the best-fit IC50 values, and the Kd value of the radioligand, using the Cheng-Prusoff equation (Cheng & Prusoff (1973) Biochem. Pharmacol. 22(23):3099-3108): Ki=IC50/(1+[L]/Kd), where [L]=concentration radioligand.
Target sequence in this assay (P31645 whole entry): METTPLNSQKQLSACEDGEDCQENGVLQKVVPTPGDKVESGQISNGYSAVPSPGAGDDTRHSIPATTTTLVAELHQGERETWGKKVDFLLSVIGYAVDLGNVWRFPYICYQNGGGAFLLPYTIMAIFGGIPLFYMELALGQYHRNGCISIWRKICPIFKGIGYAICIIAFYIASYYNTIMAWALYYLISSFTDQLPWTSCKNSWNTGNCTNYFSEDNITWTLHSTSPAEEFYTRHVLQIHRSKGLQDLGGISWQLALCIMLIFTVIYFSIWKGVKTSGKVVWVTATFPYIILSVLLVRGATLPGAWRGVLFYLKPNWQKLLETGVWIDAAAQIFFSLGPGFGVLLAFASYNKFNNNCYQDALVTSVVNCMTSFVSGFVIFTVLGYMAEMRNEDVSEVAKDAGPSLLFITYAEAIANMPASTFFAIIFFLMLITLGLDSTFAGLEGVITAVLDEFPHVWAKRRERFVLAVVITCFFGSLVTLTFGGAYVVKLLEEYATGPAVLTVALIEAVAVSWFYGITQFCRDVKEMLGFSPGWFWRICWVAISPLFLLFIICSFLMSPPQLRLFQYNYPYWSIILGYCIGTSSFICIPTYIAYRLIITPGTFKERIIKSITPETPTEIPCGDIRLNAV

NET [2] = target: T2, NET (Homo sapiens, UniProt P23975); experiment: hNET membrane radioligand binding assay (3H-nisoxetine); set-up: expressed in transfected cells; host or cells: HEK-293; conditions: hNET membranes (HEK-293), 1.0 nM 3H-nisoxetine; read-out: NET pKi (converted)
T2 sequence (P23975 whole entry): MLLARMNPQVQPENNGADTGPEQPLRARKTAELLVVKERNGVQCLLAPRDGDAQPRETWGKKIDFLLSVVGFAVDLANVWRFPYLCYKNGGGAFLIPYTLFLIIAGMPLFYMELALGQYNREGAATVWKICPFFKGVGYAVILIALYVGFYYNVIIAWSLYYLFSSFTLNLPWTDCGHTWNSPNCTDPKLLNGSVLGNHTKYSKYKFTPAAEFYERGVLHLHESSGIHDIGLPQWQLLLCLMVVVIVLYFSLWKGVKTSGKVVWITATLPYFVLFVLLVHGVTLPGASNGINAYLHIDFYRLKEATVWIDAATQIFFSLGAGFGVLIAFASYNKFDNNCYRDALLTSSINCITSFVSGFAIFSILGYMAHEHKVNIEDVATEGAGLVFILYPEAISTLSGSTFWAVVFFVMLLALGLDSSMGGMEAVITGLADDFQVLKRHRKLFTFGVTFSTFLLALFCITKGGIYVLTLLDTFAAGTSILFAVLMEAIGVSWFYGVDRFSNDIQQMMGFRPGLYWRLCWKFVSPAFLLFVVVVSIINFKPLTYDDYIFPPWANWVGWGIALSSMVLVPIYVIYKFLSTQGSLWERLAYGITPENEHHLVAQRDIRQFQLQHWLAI
Protocol: as §1, §2, §3, §4, §5

SERT [3] = target: T1, SERT; experiment: fluorescence-based serotonin uptake assay (Tsuruda et al. 2010); assay type: cell-based; conditions: serotonin reuptake inhibition, fluorescence-based assay (data indicated by an asterisk); for IC50: read-out: SERT pIC50 (converted)
Target sequence in this assay (P31645 whole entry, species assumed): as the sequence (P31645 whole entry) above

NET [4] = target: T2, NET; experiment: fluorescence-based norepinephrine uptake assay (Tsuruda et al. 2010); assay type: cell-based; conditions: norepinephrine reuptake inhibition, fluorescence-based assay (data indicated by an asterisk); read-out: NET pIC50 (converted)

SERT pKi (SERT [1]) | Ki (NET [2]) [nM] | Ki (SERT [1]) [nM] | IC50 (SERT [3]) [nM] | IC50 (NET [4]) [nM] | SERT pIC50 (SERT [3]) | Structure (SMILES)
– | ≤ 100 | ≤ 100 | – | – | – | Fc1ccc(O[C@H](C2CCOCC2)[C@@H]2CCNC2)cc1 [Example 13-10, (R)-3-[(R)-(4-Fluorophenoxy)(tetrahydropyran-4-yl)methyl]pyrrolidine]
– | ≤ 100 | ≤ 100 | – | – | – | Clc1cccc(Cl)c1O[C@H](C1CCOCC1)[C@H]1CCNC1 [Example 13-25, (S)-3-[(R)-(2,6-Dichlorophenoxy)(tetrahydropyran-4-yl)methyl]pyrrolidine]
– | ≤ 100 | ≤ 10 | – | – | – | FC(F)(F)c1c(Cl)cccc1OC(C1CCOCC1)C1CCNC1 [Example 13-18, (S)-3-[(S)-(3-Chloro-2-trifluoromethylphenoxy)(tetrahydropyran-4-yl)-methy]-pyrrolidine]
– | ≤ 1000 | ≤ 10 | ≤ 10 | ≤ 1000 | – | CC(C)OC[C@H](Oc1ccc(Cl)cc1Cl)[C@@H]1CCNC1 [Example 9-22, (R)-3-[(R)-1-(2,4-Dichlorophenoxy)-2-isopropoxyethyl]pyrrolidine]
– | ≤ 100 | ≤ 100 | ≤ 100 | ≤ 100 | – | CC(C)OC[C@H](Oc1cccc(F)c1Cl)[C@@H]1CCNC1 [Example 9-10, (R)-3-[(R)-1-(2-Chloro-3-fluorophenoxy)-2-isopropoxyethyl]pyrrolidine]
– | ≤ 10 | ≤ 100 | – | – | – | Clc1ccccc1O[C@H](C1CCOCC1)[C@@H]1CCNC1 [Example 13-2, (R)-3-[(R)-(2-Chlorophenoxy)(tetrahydropyran-4-yl)methyl]pyrrolidine]
≧8.0 | – | – | – | – | ≧8.0* | Cc1c(Cl)cccc1O[C@@H](COC(C)C)[C@@H]1CCNC1 [Example 9-25, (R)-3-[(R)-1-(3-Chloro-2-methylphenoxy)-2-isopropoxyethyl]pyrrolidine]
– | ≤ 100 | ≤ 100 | – | – | – | FC(F)(F)c1cccc(O[C@@H](C2CCOCC2)[C@H]2CCNC2)c1 [Example 13-8, (S)-3-[(S)-(Tetrahydropyran-4-yl)(3-trifluoromethylphenoxy)methyl]pyrrolidine]
– | ≤ 100 | ≤ 10 | – | – | – | FC(F)(F)c1c(Cl)cccc1O[C@@H](C1CCOCC1)[C@@H]1CCNC1 [Example 13-21, (R)-3-[(S)-(3-Chloro-2-trifluoromethylphenoxy)(tetrahydropyran-4-yl)-methyl]-pyrrolidine]
– | ≤ 10 | ≤ 100 | – | – | – | Fc1cccc(O[C@H](C2CCOCC2)[C@@H]2CCNC2)c1 [Example 13-6, (R)-3-[(R)-(3-Fluorophenoxy)(tetrahydropyran-4-yl)methyl]pyrrolidine]
– | ≤ 100 | ≤ 10 | ≤ 10 | ≤ 100 | – | FC(F)(F)c1ccc(O[C@@H](C2CCOCC2)[C@H]2CCNC2)cc1 [Example 13-11, (S)-3-[(S)-(Tetrahydropyran-4-yl)(4-trifluoromethylphenoxy)methyl]pyrrolidine]
– | ≤ 100 | ≤ 100 | – | – | – | FC(F)(F)c1cccc(O[C@H](C2CCOCC2)[C@@H]2CCNC2)c1 [Example 13-7, (R)-3-[(R)-(Tetrahydropyran-4-yl)(3-trifluoromethylphenoxy)methyl]pyrrolidine]
– | ≤ 100 | ≤ 10 | – | – | – | FC(F)(F)c1cc(Cl)ccc1O[C@H](C1CCOCC1)[C@@H]1CCNC1 [Example 13-23, (R)-3-[(R)-(4-Chloro-2-trifluoromethylphenoxy)(tetrahydropyran-4-yl)methyl]pyrrolidine]
– | ≤ 100 | ≤ 10 | – | – | – | Clc1cc(Cl)cc(O[C@@H](C2CCOCC2)[C@H]2CCNC2)c1 [Example 13-28, (S)-3-[(S)-(3,5-Dichlorophenoxy)(tetrahydropyran-4-yl)methyl]pyrrolidine]
– | ≤ 100 | ≤ 10 | – | – | – | FC(F)(F)c1c(Cl)cccc1O[C@H](C1CCOCC1)[C@H]1CCNC1 [Example 13-19, (S)-3-[(R)-(3-Chloro-2-trifluoromethylphenoxy)(tetrahydropyran-4-yl)-methyl]-pyrrolidine]
– | ≤ 10 | ≤ 100 | – | – | – | Clc1cccc(Cl)c1O[C@@H](C1CCOCC1)[C@@H]1CCNC1 [Example 13-27, (R)-3-[(S)-(2,6-Dichlorophenoxy)(tetrahydropyran-4-yl)methyl]pyrrolidine]
– | ≤ 10 | ≤ 100 | – | – | – | Clc1cccc(Cl)c1O[C@H](C1CCOCC1)[C@@H]1CCNC1 [Example 13-26, (R)-3-[(R)-(2,6-Dichlorophenoxy)(tetrahydropyran-4-yl)methyl]pyrrolidine]
– | ≤ 100 | ≤ 100 | – | – | – | Fc1cccc(O[C@@H](C2CCOCC2)[C@@H]2CCNC2)c1 [Example 13-5, (R)-3-[(S)-(3-Fluorophenoxy)(tetrahydropyran-4-yl)methyl]pyrrolidine]

Continued, compound first:

Structure (SMILES) | SERT pKi (SERT [1]) | Ki (NET [2]) [nM] | Ki (SERT [1]) [nM] | IC50 (SERT [3]) [nM] | IC50 (NET [4]) [nM] | SERT pIC50 (SERT [3])
COCC(Oc1ccccc1Cl)C1CCNC1 (single isomer, unassigned) [Example 4-2, 3-[1-(2-Chlorophenoxy)-2-methoxyethyl]pyrrolidine] | ≧7.0 | ≤ 10 | – | – | – | –
COCC(Oc1cc(Cl)cc(Cl)c1)C1CCNC1 (stereo not drawn) [Example 4-29, 3-[1-(3,5-Dichlorophenoxy)-2-methoxyethyl]pyrrolidine] | – | ≤ 100 | ≤ 10 | – | – | –
COC[C@H](Oc1c(Cl)cccc1Cl)[C@H]1CCNC1 [Example 4-28, (S)-3-[(R)-1-(2,6-Dichlorophenoxy)-2-methoxyethyl]pyrrolidine] | – | ≤ 10 | ≤ 100 | – | – | –
COCCC(Oc1ccc(Cl)cc1C)C1CCNC1 (single isomer, unassigned) [5 (1st peak)] | – | ≤ 100 | ≤ 10 | – | – | –
COC[C@H](Oc1cccc(Cl)c1Cl)[C@@H]1CCNC1 [Example 4-8, (R)-3-[(R)-1-(2,3-Dichlorophenoxy)-2-methoxyethyl]pyrrolidine] | – | ≤ 100 | ≤ 10 | – | – | –
CSCCC(Oc1cccc(Cl)c1Cl)C1CCNC1 (mixture of isomers) [Example 20, 3-[1-(2,3-Dichlorophenoxy)-3-methylsulfanylpropyl]pyrrolidine] | – | ≤ 10 | ≤ 10 | – | – | –
COC[C@@H](Oc1c(Cl)cccc1Cl)[C@H]1CCNC1 [Example 4-27, (S)-3-[(S)-1-(2,6-Dichlorophenoxy)-2-methoxyethyl]pyrrolidine] | – | ≤ 100 | ≤ 100 | – | – | –
COCC(Oc1ccc(Cl)cc1)C1CCNC1 (stereo not drawn) [Example 4-4, 3-[1-(4-Chlorophenoxy)-2-methoxyethyl]pyrrolidine] | – | ≤ 100 | ≤ 10 | – | – | –
COC[C@H](Oc1cccc(Cl)c1C)[C@@H]1CCNC1 [Example 4-17, (R)-3-[(R)-1-(3-Chloro-2-methylphenoxy)-2-methoxyethyl]pyrrolidine] | – | ≤ 100 | ≤ 10 | – | – | –
COC[C@H](Oc1cccc(F)c1Cl)[C@H]1CCNC1 [Example 4-12, (S)-3-[(R)-1-(2-Chloro-3-fluorophenoxy)-2-methoxyethyl]pyrrolidine] | – | ≤ 10 | ≤ 100 | – | – | –
COCC(Oc1ccccc1Cl)C1CCNC1 (single isomer, unassigned) [Example 4-1, 3-[1-(2-Chlorophenoxy)-2-methoxyethyl]pyrrolidine] | – | ≤ 100 | ≤ 100 | – | – | –
COC[C@H](Oc1cccc(C(F)(F)F)c1)[C@H]1CCNC1 [Example 4-3, (S)-3-[(R)-2-Methoxy-1-(3-trifluoromethylphenoxy)ethyl]pyrrolidine] | – | ≤ 100 | ≤ 100 | – | – | –
